Measurements from ChEMBL document CHEMBL3779811, “A new dammarane-type saponin from Gynostemma pentaphyllum induces apoptosis in A549 human lung carcinoma cells” (Bioorg Med Chem Lett, 2016).
In brackets after ≈: the same amount, converted by molar mass. Activity calls are given as the source filed them. No cut-off for these calls is given here.

Legend:
[1] = test system: A549; experiment: Cytotoxicity against human A549 cells assessed as decrease in viable cells after 48 hrs by CCK-8 assay; assay type: functional, cell-based; settings: for IC50: A549, 48 h
[2] = test system: A549; experiment: Cytotoxicity against human A549 cells assessed as decrease in viable cells at 60 ug/mL after 48 hrs by CCK-8 assay; assay type: functional
[3] = test system: A549; experiment: Induction of apoptosis in human A549 cells assessed as loss of mitochondrial membrane potential by measuring ratio of red to green fluorescence at 50 ug/ml after 48 hrs by JC-1 staining based flow cytometry (reference value: 28.9); assay type: functional
[4] = test system: A549; experiment: Induction of apoptosis in human A549 cells assessed as round and shrunken cells at 50 ug/mL after 48 hrs by inverted microscopy; assay type: functional, cell-based
[5] = test system: A549; experiment: Induction of apoptosis in human A549 cells assessed as chromatin condensation at 50 ug/mL after 48 hrs by Hoechst-33258 staining based fluorescence microscopy; assay type: functional, cell-based
[6] = test system: A549; experiment: Induction of apoptosis in human A549 cells assessed as viable cells at 50 ug/mL after 48 hrs by Annexin V-FITC/propidium iodide staining based flow cytometry (reference value: 91.46 %); assay type: functional; settings: A549, 48 h, read-out: Activity
[7] = test system: A549; experiment: Induction of apoptosis in human A549 cells assessed as early apoptotic cells at 50 ug/mL after 48 hrs by Annexin V-FITC/propidium iodide staining based flow cytometry (reference value: 4.57 %); assay type: functional
[8] = test system: A549; experiment: Induction of apoptosis in human A549 cells assessed as late apoptotic cells at 50 ug/mL after 48 hrs by Annexin V-FITC/propidium iodide staining based flow cytometry (reference value: 3.38 %); assay type: functional
[9] = test system: A549; experiment: Induction of apoptosis in human A549 cells assessed as necrotic cells at 50 ug/mL after 48 hrs by Annexin V-FITC/propidium iodide staining based flow cytometry (reference value: 0.59 %); assay type: functional
[10] = test system: A549; experiment: Induction of apoptosis in human A549 cells assessed as mitochondrial depolarization at 50 ug/ml after 48 hrs by JC-1 staining based fluorescence microscopy; assay type: functional, cell-based
[11] = test system: A549; experiment: Induction of apoptosis in human A549 cells assessed as mitochondrial membrane potential at 50 ug/ml after 48 hrs by JC-1 staining based flow cytometry (reference value: 96.66%); assay type: functional
[12] = test system: A549; experiment: Induction of apoptosis in human A549 cells assessed as increase in detached cells at 50 ug/ml after 48 hrs by inverted microscopy; assay type: functional, cell-based

SMILES	Activity [1]	IC50 [1] [µg/mL]	Activity [2] [%]	other results
CC(C)=CCC[C@](C)(O)[C@H]1CC[C@]2(C)[C@@H]1[C@H](O)C[C@@H]1[C@@]3(C)C[C@@H](O)[C@H](O[C@@H]4O[C@H](CO)[C@@H](O)[C@H](O)[C@H]4O[C@@H]4O[C@H](CO)[C@@H](O)[C@H](O)[C@H]4O)C(C)(C)[C@@H]3CC[C@]12C	Dose-dependent effect	78.6 (≈ 98.1 µM)	37.2	–
CC(C)=CCC[C@@](C)(O[C@@H]1O[C@H](CO)[C@@H](O)[C@H](O)[C@H]1O)[C@@H]1CC[C@@]2(C)[C@H]1[C@@H](O)C[C@H]1[C@]3(C)C[C@H](O)[C@@H](O[C@H]4O[C@@H](CO)[C@H](O)[C@@H](O)[C@@H]4O[C@H]4O[C@@H](CO)[C@H](O)[C@@H](O)[C@@H]4O)C(C)(C)[C@H]3CC[C@@]12C	–	112 (≈ 116 µM)	–	–
CC(C)=CC/C=C(/C)[C@H]1CC[C@]2(C)[C@@H]1[C@H](O)C[C@@H]1[C@@]3(C)C[C@@H](O)[C@H](O[C@@H]4O[C@H](CO)[C@@H](O)[C@H](O)[C@H]4O[C@@H]4O[C@H](CO)[C@@H](O)[C@H](O)[C@H]4O)C(C)(C)[C@@H]3CC[C@]12C	–	29 (≈ 37 µM)	–	–
C=C(CCC=C(C)C)[C@H]1CC[C@]2(C)[C@@H]1[C@H](O)C[C@@H]1[C@@]3(C)C[C@@H](O)[C@H](O[C@@H]4O[C@H](CO)[C@@H](O)[C@H](O)[C@H]4O[C@@H]4O[C@H](CO)[C@@H](O)[C@H](O)[C@H]4O)C(C)(C)[C@@H]3CC[C@]12C [DAMULIN B]	–	23.8 (≈ 30.4 µM)	–	–
CC(C)=CCC[C@@](C)(O)[C@H]1CC[C@]2(C)[C@@H]1[C@H](O)C[C@@H]1[C@@]3(C)C[C@@H](O)[C@H](O[C@@H]4O[C@H](CO)[C@@H](O)[C@H](O)[C@H]4O[C@@H]4O[C@H](CO)[C@@H](O)[C@H](O)[C@H]4O)C(C)(C)[C@@H]3CC[C@]12C	Dose-dependent effect	91 (≈ 114 µM)	30	–
CC(C)=CCC[C@@](C)(O[C@@H]1O[C@H](CO[C@H]2OC[C@H](O)[C@@H](O)[C@@H]2O)[C@@H](O)[C@H](O)[C@H]1O)[C@@H]1CC[C@@]2(C)[C@H]1[C@@H](O)C[C@H]1[C@]3(C)C[C@H](O)[C@@H](O[C@H]4O[C@@H](CO)[C@H](O)[C@@H](O)[C@@H]4O[C@H]4O[C@@H](CO)[C@H](O)[C@@H](O)[C@@H]4O)C(C)(C)[C@H]3CC[C@@]12C	–	168 (≈ 153 µM)	–	–
CC(C)=CCC[C@](C)(O)[C@@H]1CC[C@@]2(C)[C@H]1[C@@H](O)C[C@H]1[C@]3(C)C[C@H](O)[C@@H](O[C@H]4O[C@@H](CO)[C@H](O)[C@@H](O)[C@@H]4O)C(C)(C)[C@H]3CC[C@@]12C	Dose-dependent effect	74.3 (≈ 116 µM)	44.7	Ratio [3]: 8.7; Activity [4]: Active; Activity [5]: Active; viability at 50 µg/mL [6]: 81.5%; Activity [7]: 14.34%; Activity [8]: 2.74%; Activity [9]: 1.44%; Activity [10]: Active; Activity [11]: 89.64%; Activity [12]: Active
CC(=O)OC[C@H]1O[C@@H](O[C@H]2[C@H](O[C@H]3[C@H](O)C[C@]4(C)[C@H]5C[C@@H](O)[C@@H]6[C@@H](/C(C)=C\CC=C(C)C)CC[C@@]6(C)[C@]5(C)CC[C@H]4C3(C)C)O[C@H](CO)[C@@H](O)[C@@H]2O)[C@H](O)[C@@H](O)[C@@H]1O	–	61.2 (≈ 74.2 µM)	–	–
C=C(CCC=C(C)C)[C@H]1CC[C@]2(C)[C@@H]1[C@H](O)C[C@@H]1[C@@]3(C)C[C@@H](O)[C@H](O[C@@H]4O[C@H](CO)[C@@H](O)[C@H](O)[C@H]4O[C@@H]4O[C@H](COC(C)=O)[C@@H](O)[C@H](O)[C@H]4O)C(C)(C)[C@@H]3CC[C@]12C	–	40.4 (≈ 49 µM)	–	–
